In US8609698B2, “Substituted dipyridyl-dihydropyrazolones and use thereof” (Bayer Intellectual Property GmbH, priority 2006, dated 2013):
pIC50: −log10 of the molar value. Structures can show the parent of a compound that is named as a salt.

Molecular target: HIF prolyl hydroxylase
Experiment: Inhibition of the activity of HIF prolyl hydroxylase (VBC complex binding test)
Assay type: biochemical
Description: 1. In Vitro Tests for Determination of the Activity and Selectivity of HIF Prolyl 4-Hydroxylase Inhibitors 1.a) Inhibition of the Activity of HIF Prolyl Hydroxylase:
Hydroxylated HIF bonds specifically to the von Hippel-Lindau protein-elongin B-elongin C complex (VBC complex). This interaction occurs only if HIF is hydroxylated on a conserved prolyl radical. It is the basis for the biochemical determination of HIF prolyl hydroxylase activity.
A clear 96-well microtiter plate coated with NeutrAvidin HBC (Pierce) is incubated with blocker casein for 30 minutes. The plate is then washed three times with 200 μl each time of wash buffer (50 mM Tris, pH 7.5, 100 mM NaCl, 10% (v/v) blocker casein, 0.05% (v/v) Tween 20) per well. […] This peptide serves as a substrate for the prolyl hydroxylation and is bonded to the microtiter plate. After incubation for 60 minutes, the plate is washed three times with wash buffer, incubated with 1 mM biotin in blocker casein for 30 minutes and then washed again three times with wash buffer.
To carry out the prolyl hydroxylase reaction, the peptide substrate bonded to the plate is incubated with a cell lysate containing prolyl hydroxylase for 1 to 60 minutes. The reaction takes place in 100 μl reaction buffer (20 mM Tris, pH 7.5, 5 mM KCl, 1.5 mM MgCl2, 1 μM-1 mM 2-oxoglutarate, 10 μM FeSO4, 2 mM ascorbate) at room temperature. The reaction mixture moreover contains various concentrations of the prolyl hydroxylase inhibitor to be tested. The test substance is preferably, but not exclusively, employed at concentrations of between 1 nM and 100 μM. The reaction is stopped by washing the plate three times with wash buffer.
For quantitative determination of the prolyl hydroxylation, a fusion protein which contains both thioredoxin from E. coli and the VBC complex in 80 μl bonding buffer (50 mM Tris, pH 7.5, 120 mM NaCl) is added. After 15 minutes, 10 μl of a solution of polyclonal anti-thioredoxin antibodies from rabbit in bonding buffer are added. After a further 30 minutes, 10 μl of a solution of anti-rabbit immunoglobulin coupled to horseradish peroxidase in bonding buffer are added. After incubation at room temperature for 30 minutes, the plate is washed three times with wash buffer in order to remove non-bonded VBC complex and antibodies. To determine the amount of bonded VBC complex, the plate is incubated with TMB for 15 minutes. The color reaction is ended by addition of 100 μl 1 M sulfuric acid. The amount of bonded VBC complex is determined by measurement of the optical density at 450 nm. It is proportional to the amount of hydroxylated proline in the peptide substrate.
Alternatively, a VBC complex coupled to europium (Perkin Elmer) can be used for detection of the prolyl hydroxylation. In this case, the amount of bonded VBC complex is determined by the fluorescence with respect to time. The use of VBC complex labeled with [^35S]-methionine is moreover possible. For this, the radioactively labeled VBC complex can be prepared by in vitro transcription-translation in reticulocyte lysate.

SMILES | pIC50
COCCNCc1ccc(-n2[nH]cc(-c3cccnc3)c2=O)nc1 [Example 5, 2-(5-{[(2-Methoxyethyl)amino]methyl}pyridin-2-yl)-4-pyridin-3-yl-1,2-dihydro-3H-pyrazol-3-one hydrochloride] | 5.20
Cc1ccnc(-n2[nH]cc(-c3cncc(C#N)c3)c2=O)c1 [Example 8, 5-[2-(4-Methylpyridin-2-yl)-3-oxo-2,3-dihydro-1H-pyrazol-4-yl]pyridine-3-carbonitrile hydrochloride] | 5.28
O=C(O)c1ccc(-n2[nH]cc(-c3cncc(Br)c3)c2=O)nc1 [Example 10, 6-[4-(5-Bromopyridin-3-yl)-5-oxo-2,5-dihydro-H-pyrazol-1-yl]pyridine-3-carboxylic acid hydrochloride] | 6.59
CC(C)(C)NC(=O)c1ccc(-n2[nH]cc(-c3cccnc3)c2=O)nc1 [Example 18, N-tert-Butyl-6-(5-oxo-4-pyridin-3-yl-2,5-dihydro-1H-pyrazol-1-yl)pyridine-3-carboxamide hydrochloride] | 6.04
O=c1c(-c2cccnc2)c[nH]n1-c1ccc(Cn2cccc2)cn1 [Example 22, 4-Pyridin-3-yl-2-[5-(1H-pyrrol-1-ylmethyl)pyridin-2-yl]-1,2-dihydro-3H-pyrazol-3-one hydrochloride] | 5.49
O=C(NCc1ccnc(-n2[nH]cc(-c3cccnc3)c2=O)c1)Nc1c(Cl)cccc1Cl [Example 65] | 6.05
Cc1ccccc1NC(=O)OCc1ccc(-n2[nH]cc(-c3cccnc3)c2=O)nc1 [Example 80] | 5.80
